Assay results published in patent US10195189B2, “2-phenethenyltetrahydro isoquinolines useful as anti-HIV compounds” (priority 2014, dated 2019).

System: HIV-1 NL4-3 viral clone expressing Renilla luciferase
Assay: microbe, parasite or virus in culture
Type: cell-based
Settings: Human immunodeficiency virus 1, NL43, MT2, 96 h
Protocol: Protocol for MT-2 Spread Assay
The present assay was used to screen candidate antiviral compounds by quantification of virus spread and production over several rounds of infection in vitro. MT-2, a HIV-1 permissive human T-cell line, was seeded in microtiter plates and was simultaneously treated with serially diluted compound and inoculated with a HIV-1 NL4-3 viral clone engineered to express Renilla luciferase in place of Net Following treatment, the culture was incubated for 96 hours. After the incubation, media was collected and used to estimate relative infectivity on the indicator cell line, TZM-bl. Additionally, viral spread was quantified by measuring luciferase activity via a commercially available luciferase substrate. In parallel, MT-2 cells were seeded and inoculated with mock virus in the presence of serially diluted compound. Compound toxicity was quantified 96 hours after treatment with AlamarBlue.
MT-2 (NIH Aids reagent program 237) cells were grown and maintained in an incubator at 37° C. with 5% CO2 using a basal medium of RPMI-1640 supplemented with 10% FBS. Cells were seeded in 100 μl at 2×10^4 cells/well in white walled 96-well microtiter plates. Candidate compounds were 3-fold serially diluted in the appropriate solvent. Solvent without compound was used as a no drug reference. Cells were inoculated at a multiplicity of 0.027 with an HIV-1 NL4-3 virus stock engineered to express Renilla luciferase in place of Net Diluted virus stock was first added to serially diluted compound. Compound and virus were delivered to cells in an equal volume (100 μl) and treated cultures were returned to the incubator for 96 hours. In parallel, plates for cytotoxicity estimates were prepared in the same way except cells were plated in clear walled 96-well microtiter plates and were mock infected.
At 96 hours post infection, 100 μl virus containing culture supernatant was collected from the treated and infected cultures and serially diluted in DMEM supplemented with 10% FBS, 1% sodium pyruvate, and 20 μg/ml DEAE dextran. One day prior, TZM-bl (ATCC PTA-5659) were cultured in basal medium of DMEM supplemented with 10% FBS and 1% sodium pyruvate and seeded at 7.5×10^3 cells/well in black walled 96-well microtiter plates. Diluted virus containing culture supernatant was transferred to TZM-bl cultures and incubated for 48 hours at 37° C. with 5% CO2. Infected TZM-bl cultures were fixed for 5 minutes with a 1% formaldehyde/0.2% gluteraldehyde/PBS solution then washed three times with PBS. Fixed cultures were incubated at 37° C. for 25 minutes with a 200 μg/ml MUG (4-Methylumbelliferyl β-D-[…])/DMEM solution. The reaction was stopped with an equal volume of 1M sodium carbonate and read at 360, 449 nm on fluorescence plate reader (Biotek).
At 96 hours post infection, 100 μl of culture supernatant was removed from the treated and infected cultures and EnduRen live cell substrate (Promega) was added at a final concentration 1.3 μg/ml. Cells were incubated for 1.5 hours at 37° C. with 5% CO2 then read on a luminescence plate reader (Biotek).
For all assays, data was imported into Accelrys Assay Explorer 3.3. In Assay Explorer, % inhibition (antiviral or cytotoxicity) was calculated using the solvent control as a reference by the following equation: 1−(SignalCompound/SignalReference). The % Inhibition and compound concentration data was fitted using the following 4-parameter logistic model (Assay Explorer model 42):
[formula] where X is compound concentration, Y is % inhibition, D is the maximum % Inhibition (constrained to 100%), C is IC50 value or inflection point, B is the hill slope, and A is the minimum % inhibition (constrained to 0%). The IC50 value is reported as the EC50 or CC50 depending on the assay endpoint. EC50 represents the effective concentration at which virus replication is inhibited by 50 percent. CC50 represents the concentration that results in the death of 50 percent of the host cells. […]

`COc1cc(C)c(/C=C/C2NCCc3cc(OCc4ccccc4)c(OC)cc32)cc1C` (stereo not drawn) [BV, 6-Benzyloxy-7-methoxy-1-[(E)-2-(4-methoxy-2,5-dimethyl-phenyl)vinyl]-1,2,3,4-tetrahydroisoquinoline] gave an EC50 of 0.304 µM.
Work on `COc1cc2c(cc1OCc1ccccc1)CCNC2/C=C/c1cc(C(C)C)c(OC)cc1C` (stereo not drawn) [BW, 6-Benzyloxy-1-[(E)-2-(5-isopropyl-4-methoxy-2-methyl-phenyl)vinyl]-7-methoxy-1,2,3,4-tetrahydroisoquinoline] yielded an EC50 of 0.84 µM.
Molecule `COc1cc2c(cc1OCc1ccccc1)CCNC2/C=C/c1cc(OCC(C)(C)C)c(OC)cc1C` (stereo not drawn) [BX, 6-Benzyloxy-1-[(E)-2-[5-(2,2-dimethylpropoxy)-4-methoxy-2-methyl-phenyl]vinyl]-7-methoxy-1,2,3,4-tetrahydroisoquinoline] has an EC50 of 0.35 µM.
`COc1cc2c(cc1OCc1ccccc1)CCNC2/C=C/c1cc(OCC2CCNCC2)c(OC)cc1C` (stereo not drawn) [BY, 6-Benzyloxy-7-methoxy-1-[(E)-2-[4-methoxy-2-methyl-5-(4-piperidylmethoxy)phenyl]vinyl]-1,2,3,4-tetrahydroisoquinoline] was tested, and the EC50 was 0.397 µM.
Work on `COc1cc2c(cc1OCc1ccccc1)CCNC2/C=C/c1ccc(S(C)(=O)=O)cc1` (stereo not drawn) [BZ, 6-Benzyloxy-7-methoxy-1-[(E)-2-(4-methylsulfonylphenyl)vinyl]-1,2,3,4-tetrahydroisoquinoline] yielded an EC50 of 1 µM.
In the case of `COc1ccc(/C=C/C2NCCc3cc(OCc4ccccc4)c(OC)cc32)c(OC)n1` (stereo not drawn) [CA, 6-Benzyloxy-1-[(E)-2-(2,6-dimethoxy-3-pyridyl)vinyl]-7-methoxy-1,2,3,4-tetrahydroisoquinoline], the EC50 is reported as 0.64 µM.
`COc1cc2c(cc1OCc1ccccc1)CCNC2/C=C/c1ccc2c(c1)CCCO2` (stereo not drawn) [CB, 6-Benzyloxy-1-[(E)-2-chroman-6-ylvinyl]-7-methoxy-1,2,3,4-tetrahydroisoquinoline] was tested, and the EC50 was 1.55 µM.
Molecule `COc1cc2c(cc1OCc1ccccc1)CCNC2/C=C/c1c(C)ccc2c1OCCC2` (stereo not drawn) [CC, 6-Benzyloxy-7-methoxy-1-[(E)-2-(7-methylchroman-8-yl)vinyl]-1,2,3,4-tetrahydroisoquinoline] has an EC50 of 1.18 µM.
Work on `COc1cc(C)c(/C=C/C2NCCc3cc(OCc4ccccc4)c(OC)cc32)cc1OCCCCN=[N+]=[N-]` (stereo not drawn) [CD, 1-[(E)-2-[5-(4-azidobutoxy)-4-methoxy-2-methyl-phenyl]vinyl]-6-benzyloxy-7-methoxy-1,2,3,4-tetrahydroisoquinoline] yielded an EC50 of 0.088 µM.
For `COc1cc2c(cc1OCc1ccccc1)CCNC2/C=C/c1cc2c(cc1C)OCCC2` (stereo not drawn) [CE, 6-Benzyloxy-7-methoxy-1-[(E)-2-(7-methylchroman-6-yl)vinyl]-1,2,3,4-tetrahydroisoquinoline], the EC50 was 0.125 µM.
`COc1cc2c(cc1OCc1ccccc1)CCNC2/C=C/c1cccc2c1OCCC2` (stereo not drawn) [CF, 6-Benzyloxy-1-[(E)-2-chroman-8-ylvinyl]-7-methoxy-1,2,3,4-tetrahydroisoquinoline] gave an EC50 of 0.49 µM.
`COc1cc2c(cc1OCc1ccccc1)CCNC2/C=C/c1cc2c(cc1C)OCC2` (stereo not drawn) [CG, 6-Benzyloxy-7-methoxy-1-[(E)-2-(6-methyl-2,3-dihydrobenzofuran-5-yl)vinyl]-1,2,3,4-tetrahydroisoquinoline] was tested, and the EC50 was 0.14 µM.
`COc1cc2c(cc1OCc1ccccc1)CCNC2/C=C/c1cc2ccccc2n1C(=O)OC(C)(C)C` (stereo not drawn) [CH, tert-Butyl 2-[(E)-2-(6-benzyloxy-7-methoxy-1,2,3,4-tetrahydroisoquinolin-1-yl)vinyl]indole-1-carboxylate] showed an EC50 of 0.58 µM.
`COc1cc2c(cc1OCc1ccccc1)CCNC2/C=C/c1cn(C(=O)OC(C)(C)C)c2ccccc12` (stereo not drawn) [CI, tert-Butyl 3-[(E)-2-(6-benzyloxy-7-methoxy-1,2,3,4-tetrahydroisoquinolin-1-yl)vinyl]indole-1-carboxylate] gave an EC50 of 0.23 µM.
For `COc1cc2c(cc1OCc1ccccc1)CCNC2/C=C/c1c[nH]c2ccccc12` (stereo not drawn) [CJ, 6-Benzyloxy-1-[(E)-2-(1H-indol-3-yl)vinyl]-7-methoxy-1,2,3,4-tetrahydroisoquinoline], the EC50 was 0.47 µM.
Work on `CCOC(=O)CCCOc1cc(/C=C/C2NCCc3cc(OCc4ccccc4)c(OC)cc32)ccc1OC` (stereo not drawn) [CV, Ethyl 4-[5-[(E)-2-(6-benzyloxy-7-methoxy-1,2,3,4-tetrahydroisoquinolin-1-yl)vinyl]-2-methoxy-phenoxy]butanoate] yielded an EC50 of 0.1 µM.
`COc1cc2c(cc1OCc1ccccc1)CCNC2/C=C/c1ccccc1NC(=O)OC(C)(C)C` (stereo not drawn) [CW, tert-Butyl N-[2-[(E)-2-(6-benzyloxy-7-methoxy-1,2,3,4-tetrahydroisoquinolin-1-yl)vinyl]phenyl]carbamate] was tested, and the EC50 was 5.4 µM.
Work on `COc1cc2c(cc1OCc1ccccc1)CCNC2/C=C/c1ccccc1N` (stereo not drawn) [CX, 2-[(E)-2-(6-benzyloxy-7-methoxy-1,2,3,4-tetrahydroisoquinolin-1-yl)vinyl]aniline] yielded an EC50 of 1.4 µM.
Molecule `COc1cc2c(cc1OCc1ccccc1)CCNC2/C=C/c1ccc(OC)c(C(F)(F)F)c1` (stereo not drawn) [CY, (E)-6-(Benzyloxy)-7-methoxy-1-(4-methoxy-3-(trifluoromethyl)styryl)-1,2,3,4-tetrahydroisoquinoline] has an EC50 of 0.697 µM.
Work on `COc1cc2c(cc1OCc1ccccc1)CCNC2/C=C/c1cc(C)c(OC)c(C(F)(F)F)c1` (stereo not drawn) [CZ, (E)-6-(benzyloxy)-7-methoxy-1-(4-methoxy-3-methyl-5-(trifluoromethyl)styryl)-1,2,3,4-tetrahydroisoquinoline] yielded an EC50 of 2.19 µM.
`COc1cc2c(cc1OCc1ccccc1)CCNC2/C=C/c1ccccc1C(F)(F)F` (stereo not drawn) [DA, (E)-6-(benzyloxy)-7-methoxy-1-(2-(trifluoromethyl)styryl)-1,2,3,4-tetrahydroisoquinoline] was tested, and the EC50 was 2.34 µM.
In the case of `COc1cc2c(cc1OCc1ccccc1)CCNC2/C=C/c1cccc(C(F)(F)F)c1` (stereo not drawn) [DB, (E)-6-(benzyloxy)-7-methoxy-1-(3-(trifluoromethyl)styryl)-1,2,3,4-tetrahydroisoquinolin], the EC50 is reported as 2.67 µM.
Molecule `COc1cc2c(cc1OCc1ccccc1)CCNC2/C=C/c1ccccc1N(C)C` (stereo not drawn) [DC, (E)-2-(2-(6-(benzyloxy)-methoxy-1,2,3,4-tetrahydroisoquinolin-1-yl)vinyl)-N,N-dimethylamine] has an EC50 of 0.83 µM.
In the case of `COCCOc1ccccc1/C=C/C1NCCc2cc(OCc3ccccc3)c(OC)cc21` (stereo not drawn) [DE, (E)-6-(benzyloxy)-7-methoxy-1-(2-(2-methoxyethoxy)styryl)-1,2,3,4-tetrahydroisoquinoline], the EC50 is reported as 1.44 µM.
Molecule `COc1cc2c(cc1OCc1ccccc1)CCNC2/C=C/c1ccc2c(c1)OC(F)(F)O2` (stereo not drawn) [DF, (E)-6-(benzyloxy)-1-(2-(2,2-difluorobenzo[d][1,3]dioxol-5-yl)vinyl)-7-methoxy-1,2,3,4-tetrahydroisoquinoline] has an EC50 of 5.44 µM.
`COc1ccccc1/C=C/C1NCCc2cc(OCc3ccccc3)c(OC)cc21` (stereo not drawn) [DG, (E)-6-(benzyloxy)-7-methoxy-1-(2-methoxystyryl)-1,2,3,4-tetrahydroisoquinoline] showed an EC50 of 2.2 µM.
`COc1cc2c(cc1OCc1ccccc1)CCNC2/C=C/c1ccccc1N1CCOCC1` (stereo not drawn) [DH, (E)-4-(2-(2-(6-(benzyloxy)-7-methoxy-1,2,3,4-tetrahydroisoquinolin-1-yl)vinyl)phenyl)morpholine] was tested, and the EC50 was 5.26 µM.
`COc1ccc2cc(/C=C/C3NCCc4cc(OCc5ccccc5)c(OC)cc43)ccc2c1` (stereo not drawn) [DI, (E)-6-(benzyloxy)-7-methoxy-1-(2-(6-methoxynaphthalen-2-yl)vinyl)-1,2,3,4-tetrahydroisoquinoline] was tested, and the EC50 was 0.628 µM.
With `COc1cc2c(cc1OCc1ccccc1)CCNC2/C=C/c1ccc(-c2cccnc2)cc1` (stereo not drawn) [DJ] the EC50 was 0.393 µM.
For `COc1cc2c(cc1OCc1ccccc1)CCNC2/C=C/c1ccc(-n2ccnc2)cc1` (stereo not drawn) [DK, (E)-1-(4-(1H-imidazol-1-yl)styryl)-6-(benzyloxy)-7-methoxy-1,2,3,4-tetrahydroisoquinoline], the EC50 was 0.107 µM.
